Common to all, as to assay: inhibition of tumour cell growth, NCI panel, 48 h
In test [1] the test system is 786-0 renal.
Test [2] has as its system ACHN renal.
Test [3] relates to HCC-2998 colon.
Test [4] deals with HCT-116 colon.
In test [5] the test system is HS 578T breast.
The test system of test [6] is K-562 leukemia.
Test [7] has as its system KM12 colon.
Test [8] deals with M14 melanoma.
For test [9], the system named is MALME-3M melanoma.
For test [10], the system named is MCF7 breast.
In test [11] the test system is MDA-MB-231 breast.
Test [12] relates to NCI-H23 lung.
Test [13] deals with OVCAR-8 ovarian.
Test [14] concerns PC-3 prostate.
The test system of test [15] is RXF 393 renal.
In test [16] the test system is SF-539 CNS.
Test [17] has as its system SK-OV-3 ovarian.
The subject of test [18] is UACC-62 melanoma.
Test [19] relates to SK-MEL-2 melanoma.
For test [20], the system named is U251 CNS.

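Protocol summary: plate cells (96-well), add compound at 5 concentrations, incubate 48 h, interpolate endpoints linearly. At the TGI there is no net growth.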

The values that follow come from PubChem BioAssay (NCI).

Consider `O=C1N=C(SC(SC2=NC(=O)C3(NN2)c2ccccc2-c2ccccc23)=C(SC2=NC(=O)C3(NN2)c2ccccc2-c2ccccc23)SC2=NC(=O)C3(NN2)c2ccccc2-c2ccccc23)NNC12c1ccccc1-c1ccccc12`, for which the TGI in test [1] was greater than 10 µM; in test [2], 9.09 µM; in test [3] it was greater than 10 µM; in [4], greater than 10 µM; in test [5], greater than 10 µM; in [6], greater than 10 µM. The TGI in [7], in [8], in test [9], in test [10], in [11] and in [12] was greater than 10 µM throughout. Also, the TGI in test [13], in test [14], in [15], in [16], in test [17] and in [18] was greater than 10 µM in each case.
For `O=C1Nc2ccccc2C1=Nc1cccc2ncccc12`, the TGI in test [1], in [2], in test [4], in test [5], in test [6] and in test [7] was greater than 100 µM each time. Also, the TGI in [8], in test [9], in test [10], in test [11], in test [12] and in test [13] was greater than 100 µM each time. In addition, the TGI was greater than 100 µM in test [14]; greater than 100 µM in test [15]; greater than 100 µM in [16]; greater than 100 µM in [19]; 99.7 µM in [17]; greater than 100 µM in test [20]. The compound further showed a TGI in [18] greater than 100 µM.
Turning to `CN1CCc2c3n(c4cc(Br)ccc24)[C@H](O)CCCC31` (some centres not stated), the TGI in test [1] is 3.08 µM; in test [2] it was greater than 10 µM; in test [3], 3.16 µM; in test [4] it was 3.07 µM; in test [5] it was 4.57 µM; in test [6] it was 1.88 µM. The TGI is 5.32 µM in test [7]; 3.24 µM in [8]; 4.63 µM in test [9]; 3.24 µM in test [10]; 4.38 µM in [11]; greater than 10 µM in [12]. Also, the TGI in test [13] is 3.43 µM; in test [14], greater than 10 µM; in [15] it was 7.74 µM; in [16], 3.5 µM; in test [19], 1.7 µM; in test [17], greater than 10 µM. This compound also yielded a TGI in test [20] of 3.35 µM.
For the compound `C[C@@]1(O)C[C@@H](N2C(=O)O[C@@H](c3ccccc3)[C@H]2c2ccccc2)[C@@H]1COCc1ccccc1`, the TGI in test [1] was 48.9 µM; in test [2], greater than 100 µM; in [3], 58.4 µM; in [4], 47.4 µM; in test [5], 62.9 µM; in [6], greater than 100 µM. For the same compound, the TGI is 74.3 µM in [7]; 30 µM in [8]; 46.8 µM in test [9]; greater than 100 µM in test [10]; 39.8 µM in test [11]; 43.6 µM in [12]. Moreover, the TGI in [13] stood at 54 µM; in test [14], 50.3 µM; in [15], 80.2 µM; in test [16], 38.4 µM; in test [19] it was 27.5 µM; in test [20], 32.9 µM. The compound also gave a TGI in test [18] of 31.5 µM.
Consider `COc1cc(C=O)cc(/C=N/n2c3ccccc3c3ccccc32)c1O`, for which the TGI was greater than 100 µM in [1]; greater than 100 µM in [2]; 67.4 µM in test [3]; greater than 100 µM in test [4]; greater than 100 µM in [5]; 67.7 µM in test [6]. Moreover, the TGI in test [7] is greater than 100 µM; in test [8], greater than 100 µM; in test [9] it was greater than 100 µM; in [10], 42.6 µM; in test [11] it was greater than 100 µM; in test [12], greater than 100 µM. Moreover, the TGI in test [13] is greater than 100 µM; in [14], greater than 100 µM; in test [15], 99.7 µM; in test [16], greater than 100 µM; in test [17], greater than 100 µM; in [20], greater than 100 µM. The same compound showed a TGI in test [18] greater than 100 µM.
Turning to `S=c1nc(N2CCCCC2)c2cn[nH]c2[nH]1`, the TGI in test [1], in test [2], in test [3], in test [4], in [5] and in [6] was greater than 100 µM throughout. Moreover, the TGI in test [7], in test [8], in [9], in test [10], in [11] and in test [12] was greater than 100 µM in each case. Moreover, the TGI in test [13] is greater than 100 µM; in [14], greater than 100 µM; in test [15] it was greater than 100 µM; in [16], greater than 100 µM; in [19] it was 74.8 µM; in test [20], greater than 100 µM. In addition, in [18], the TGI is greater than 100 µM.
As to `CC1OC(OC2C(O)COC(OC3C(C)OC(OC4C(OC(=O)[C@]56CCC(C)(C)C[C@@H]5C5=CCC7[C@@]8(C)C[C@H](O)[C@H](OC9OC(CO)C(O)C(OC%10OC(CO)C(O)C(O)C%10O)C9O)[C@@](C)(CO)[C@@H]8CC[C@@]7(C)[C@]5(C)CC6)OCC(O)C4O)C(O)C3OC3OCC(O)(CO)C3O)C2O)C(O)C(O)C1O` (some centres not stated), the TGI in [1] worked out at 15.4 µM; in [2], 19.7 µM; in test [3], 20.8 µM; in [4], 32.2 µM; in test [5] it was 22.4 µM; in test [6] it was 50 µM. Moreover, the TGI in [7] is 26.2 µM; in [8], 13 µM; in [9] it was 13.2 µM; in test [10] it was 29.4 µM; in test [11] it was 16.7 µM; in test [12] it was 14.3 µM. Moreover, the TGI in test [13] worked out at 18.9 µM; in test [14], 13.7 µM; in test [15] it was 17.2 µM; in test [16] it was 17.5 µM; in test [17], 18 µM; in test [20], 20.6 µM. In [18], the TGI was found to be 22.9 µM.
